From ChEMBL document CHEMBL5705887, “Distinct concentration-dependent effects of the polo-like kinase 1-specific inhibitor GSK461364A, including differential effect on apoptosis” (Cancer Res, 2009)
The source made the active and inactive calls. The rule behind the calls is not given here.

Columns and labels:
NCI-H1299 = test: Antiproliferative activity against human NCI-H1299 cells assessed as of viable cell signal at minimum maximum cell growth incubated for 72 hrs by celltiter-glo assay relative to control; assay type: functional
NCI-N87 = test: Antiproliferative activity against human NCI-N87 cells assessed as of viable cell signal at minimum maximum cell growth incubated for 72 hrs by celltiter-glo assay relative to control; assay type: functional
A549 = test: Antiproliferative activity against human A549 cells assessed as viable cell signal at maximum growth inhibition incubated for 72 hrs by celltiter-glo assay relative to control; assay type: functional
SK-OV-3 = test: Antiproliferative activity against human SK-OV-3 cells assessed as of viable cell signal at minimum maximum cell growth incubated for 72 hrs by celltiter-glo assay relative to control; assay type: functional
OVCAR-8 = test: Antiproliferative activity against human OVCAR-8 cells assessed as of viable cell signal at minimum maximum cell growth incubated for 72 hrs by celltiter-glo assay relative to control; assay type: functional
MIA PaCa-2 = test: Antiproliferative activity against human MIA PaCa-2 cells assessed as viable cell signal at maximum growth inhibition incubated for 72 hrs by celltiter-glo assay relative to control; assay type: functional
NCI-H522 = test: Antiproliferative activity against human NCI-H522 cells assessed as viable cell signal at maximum growth inhibition incubated for 72 hrs by celltiter-glo assay relative to control; assay type: functional
THP-1 = test: Antiproliferative activity against human THP-1 cells assessed as growth inhibition incubated for 72 hrs by celltiter-glo assay; assay type: functional
U2OS = test: Antiproliferative activity against human U2OS cells assessed as viable cell signal at maximum growth inhibition incubated for 72 hrs by celltiter-glo assay relative to control; assay type: functional
PC-3 = test: Antiproliferative activity against human PC-3 cells assessed as growth inhibition incubated for 72 hrs by celltiter-glo assay; assay type: functional
ASPC1 = test: Antiproliferative activity against human ASPC1 cells assessed as of viable cell signal at minimum maximum cell growth incubated for 72 hrs by celltiter-glo assay relative to control; assay type: functional
Raji = test: Antiproliferative activity against human Raji cells assessed as of viable cell signal at minimum maximum cell growth incubated for 72 hrs by celltiter-glo assay relative to control; assay type: functional
COLO 205 = test: Antitumor activity against human COLO 205 cells xenografted in Nude mouse assessed as effect on Ki67 level at 50 mg/kg, ip administered one dose every 2 day repeated for 12 days by immunohistochemistry analysis; assay type: functional, organism-based; settings: time 12.0 day
HCC1954 [1] = test: Antiproliferative activity against human HCC1954 cells assessed as of viable cell signal at minimum maximum cell growth incubated for 72 hrs by celltiter-glo assay relative to control; assay type: functional
U-87 MG [2] = test: Antiproliferative activity against human U-87 MG cells assessed as growth inhibition incubated for 72 hrs by celltiter-glo assay; assay type: functional, U-87MG ATCC
SCLC = test: Antiproliferative activity against human SCLC cells assessed as viable cell signal at maximum growth inhibition incubated for 72 hrs by celltiter-glo assay relative to control; assay type: functional
U-87 MG [3] = test: Antiproliferative activity against human U-87 MG cells assessed as of viable cell signal at minimum maximum cell growth incubated for 72 hrs by celltiter-glo assay relative to control; assay type: functional, U-87MG ATCC
NCI-H727 = test: Antiproliferative activity against human NCI-H727 cells assessed as of viable cell signal at minimum maximum cell growth incubated for 72 hrs by celltiter-glo assay relative to control; assay type: functional
HCC1954 [4] = test: Antiproliferative activity against human HCC1954 cells assessed as viable cell signal at maximum growth inhibition incubated for 72 hrs by celltiter-glo assay relative to control; assay type: functional
Jurkat = test: Antiproliferative activity against human Jurkat cells assessed as growth inhibition incubated for 72 hrs by celltiter-glo assay; assay type: functional
HCT-15 = test: Antiproliferative activity against human HCT-15 cells assessed as of viable cell signal at minimum maximum cell growth incubated for 72 hrs by celltiter-glo assay relative to control; assay type: functional
[5] = biological target: Serine/threonine-protein kinase pim-1 (Homo sapiens) (UniProt P11309); test: Inhibition of full length N-terminal GST-tagged recombinant human PIM1 expressed in Escherichia coli at 10 uM relative to control
Sequence of Serine/threonine-protein kinase pim-1 (Homo sapiens) (P11309 whole entry, looked up): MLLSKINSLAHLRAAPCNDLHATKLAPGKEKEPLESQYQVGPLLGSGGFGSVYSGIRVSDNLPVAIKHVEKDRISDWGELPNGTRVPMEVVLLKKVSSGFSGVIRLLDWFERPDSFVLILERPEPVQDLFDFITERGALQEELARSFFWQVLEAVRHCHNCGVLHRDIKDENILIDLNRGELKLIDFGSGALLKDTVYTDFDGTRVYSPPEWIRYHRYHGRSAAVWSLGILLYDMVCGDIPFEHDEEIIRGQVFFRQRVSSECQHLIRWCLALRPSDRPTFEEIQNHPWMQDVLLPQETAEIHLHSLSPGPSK

SW480 = test: Antiproliferative activity against human SW480 cells assessed as viable cell signal at maximum growth inhibition incubated for 72 hrs by celltiter-glo assay relative to control; assay type: functional
MDA-MB-468 = test: Antiproliferative activity against human MDA-MB-468 cells assessed as of viable cell signal at minimum maximum cell growth incubated for 72 hrs by celltiter-glo assay relative to control; assay type: functional
H322 = test: Antiproliferative activity against human H322 cells assessed as growth inhibition incubated for 72 hrs by celltiter-glo assay; assay type: functional; settings: NCI-H322
A-427 = test: Antiproliferative activity against human A-427 cells assessed as of viable cell signal at minimum maximum cell growth incubated for 72 hrs by celltiter-glo assay relative to control; assay type: functional
SW-620 = test: Antiproliferative activity against human SW620 cells assessed as growth inhibition incubated for 72 hrs by celltiter-glo assay; assay type: functional
[6] = biological target: Cyclin-dependent kinase 1/cyclin B1 (Homo sapiens) (UniProt P06493+P14635); test: Inhibition of C-terminal his6-tagged recombinant human CDK1/full length N-terminal GST-tagged recombinant human cyclin B expressed in baculovirus Sf21 insect cells at 10 uM relative to control
Sequence of Cyclin-dependent kinase 1/cyclin B1 (Homo sapiens) (P06493 whole entry, looked up): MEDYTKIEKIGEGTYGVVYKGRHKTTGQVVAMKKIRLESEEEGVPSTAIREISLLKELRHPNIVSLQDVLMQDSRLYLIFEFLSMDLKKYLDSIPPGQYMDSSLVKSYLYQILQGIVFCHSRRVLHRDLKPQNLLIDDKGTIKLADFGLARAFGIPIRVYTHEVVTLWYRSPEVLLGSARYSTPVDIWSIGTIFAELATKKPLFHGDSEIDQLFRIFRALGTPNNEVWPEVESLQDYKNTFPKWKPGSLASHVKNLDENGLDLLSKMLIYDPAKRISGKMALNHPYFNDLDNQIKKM
Sequence of Cyclin-dependent kinase 1/cyclin B1 (Homo sapiens) (P14635 whole entry, looked up): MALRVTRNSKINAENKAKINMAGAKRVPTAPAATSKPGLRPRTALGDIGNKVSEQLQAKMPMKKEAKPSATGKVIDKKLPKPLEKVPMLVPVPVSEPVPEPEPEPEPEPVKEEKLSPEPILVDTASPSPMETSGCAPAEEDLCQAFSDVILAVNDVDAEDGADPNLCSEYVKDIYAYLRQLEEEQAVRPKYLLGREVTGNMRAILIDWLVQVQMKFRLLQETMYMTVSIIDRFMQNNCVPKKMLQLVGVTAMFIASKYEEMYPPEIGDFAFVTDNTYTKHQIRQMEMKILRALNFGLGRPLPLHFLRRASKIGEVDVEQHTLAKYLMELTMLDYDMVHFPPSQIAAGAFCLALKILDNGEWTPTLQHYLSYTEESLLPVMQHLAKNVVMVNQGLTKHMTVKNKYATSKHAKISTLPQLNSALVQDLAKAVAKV

Compound: C[C@@H](Oc1cc(-n2cnc3ccc(CN4CCN(C)CC4)cc32)sc1C(N)=O)c1ccccc1C(F)(F)F [GSK-461364]
- Emin (NCI-H1299): 44.4%
- Emin (NCI-N87): 321.5%
- Emax (A549): 632%
- Emin (SK-OV-3): 103.8%
- Emin (OVCAR-8): 46.5%
- Emax (MIA PaCa-2): 580%
- Emax (NCI-H522): 264%
- GI50 (THP-1): 11.8 nM
- Emax (U2OS): 771%
- GI50 (PC-3): 14.7 µM
- Emin (ASPC1): 114%
- Emin (Raji): 5.1%
- Activity (COLO 205): Active
- Emin (HCC1954 [1]): 90.9%
- GI50 (U-87 MG [2]): 7.45 nM
- Emax (SCLC): 834%
- Emin (U-87 MG [3]): 0.1%
- Emin (NCI-H727): 158.9%
- Emax (HCC1954 [4]): 280%
- GI50 (Jurkat): 18.6 nM
- Emin (HCT-15): 75%
- inhibition [5]: 90%
- Emax (SW480): 512%
- Emin (MDA-MB-468): 182.2%
- GI50 (H322): 20.2 nM
- Emin (A-427): 15.4%
- GI50 (SW-620): 6.6 nM
- inhibition [6]: 66%
